Experimental data: ChEMBL document CHEMBL5360561, “Design, synthesis and biological evaluation of fluorinated selective estrogen receptor degraders (FSERDs) --- A promising strategy for advanced ER positive breast cancer” (Eur J Med Chem, 2023)
Activity calls are given as the source filed them. The calls are words filed in the database; no cut-off is given here.

How the values were obtained:
[1] = tested on: MCF7; assay: Antiproliferative activity against human MCF7 cells assessed as cell growth inhibition incubated for 5 days by MTT assay; type: functional, cell-based; settings: MCF7, 120 h
[2] = tested on: Ishikawa; assay: Antiproliferative activity against human Ishikawa cells assessed as cell growth inhibition at 20 uM incubated for 3 days by MTT assay; type: functional; settings: for inhibition at 20 µM: 72 h, time 3 day; for inhibition: time 3.0 day
[3] = tested on: MCF7; assay: Induction of ER degradation in human MCF7 cells at 10 uM incubated for 24 hrs by Western blot analysis; type: cell-based
[4] = tested on: MCF7; assay: Induction of cell cycle arrest in human MCF7 cells assessed as accumulation at G0/G1 phase at 10 uM incubated for 24 hrs by flow cytometry (Rvb= 46.53 +/- 0.44%); type: functional
[5] = tested on: MCF7; assay: Antitumor activity against human MCF7 cells xenografted in nude mouse assessed as tumor growth inhibition at 10 mg/kg,po for 30 days; type: functional, organism-based; settings: time 30.0 day
[6] = Toxicity in mouse xenografted with human MCF7 cells assessed as body weight loss at 30 mg/kg,po for 30 days daily; type: organism-based; settings: in vivo, 720 h, time 30 day
[7] = tested on: MCF7; assay: Antitumor activity against human MCF7 cells xenografted in nude mouse assessed as tumor growth inhibition at 30 mg/kg,po for 30 days daily; type: functional, organism-based; settings: time 30.0 day
[8] = tested on: Mus musculus; assay: In vivo ER degradation in mouse xenografted with human MCF7 cells assessed as reduction in ER expression level in tumor at 30 mg/kg,po for 30 days daily by […]; type: functional, organism-based; settings: time 30.0 day
[9] = tested on: MCF7; assay: Induction of ER degradation in Estradiol stimulated human MCF7 cells assessed as decrease in PGR gene expression level at 1 to 10 uM incubated for 24 hrs by RT-qPCR analysis; type: cell-based; settings: dose 1-10 µM
[10] = tested on: Mus musculus; assay: In vivo ER degradation in mouse xenografted with human MCF7 cells assessed as reduction in PR expression level in tumor at 30 mg/kg,po for 30 days daily by […]; type: functional, organism-based; settings: time 30.0 day
[11] = tested on: MCF7; assay: Induction of ER degradation in human MCF7 cells at 10 uM incubated for 24 hrs by DAPI staining based immunofluorescence analysis; type: cell-based
[12] = Toxicity in mouse xenografted with human MCF7 cells assessed as morphological changes in spleen at 30 mg/kg,po for 30 days daily by Hematoxylin and eosin staining based microscopy; type: organism-based; settings: in vivo, 720 h, time 30 day
[13] = Toxicity in mouse xenografted with human MCF7 cells assessed as morphological changes in liver at 30 mg/kg,po for 30 days daily by Hematoxylin and eosin staining based microscopy; type: organism-based; settings: in vivo, 720 h, time 30 day
[14] = tested on: MCF7; assay: Induction of ER degradation in Estradiol stimulated human MCF7 cells assessed as decrease in TFF1 gene expression level at 1 to 10 uM incubated for 24 hrs by RT-qPCR analysis; type: cell-based; settings: dose 1-10 µM
[15] = tested on: MCF7; assay: Induction of ER degradation in human MCF7 cells at 0.001 to 10 uM incubated for 24 hrs by Western blot analysis; type: cell-based; settings: dose 0.001-10 µM
[16] = tested on: MCF7; assay: Induction of ER degradation in human MCF7 cells transfected with ERE-luciferase plasmid assessed as decrease in estradiol induced ERE-luciferase activity by measuring luminescence at 10 uM incubated for 24 hrs by luciferase assay; type: cell-based
[17] = Toxicity in Sprague-Dawley rat uterus assessed as change in uterine wet weight at 30 mg/kg, po for 2 days consecutively; type: organism-based; settings: in vivo, 48 h, time 2 day
[18] = Toxicity in mouse xenografted with human MCF7 cells assessed as morphological changes in kidney at 30 mg/kg,po for 30 days daily by Hematoxylin and eosin staining based microscopy; type: organism-based; settings: in vivo, 720 h, time 30 day
[19] = tested on: MCF7; assay: Induction of ER degradation in Estradiol stimulated human MCF7 cells assessed as decrease in GREB1 mRNA expression level at 1 to 10 uM incubated for 24 hrs by RT-qPCR analysis; type: cell-based; settings: dose 1-10 µM
[20] = Toxicity in mouse xenografted with human MCF7 cells assessed as morphological changes in heart at 30 mg/kg,po for 30 days daily by Hematoxylin and eosin staining based microscopy; type: organism-based; settings: in vivo, 720 h, time 30 day
[21] = tested on: MCF7; assay: Antitumor activity against human MCF7 cells xenografted in nude mouse assessed as reduction in Ki67 expression at 30 mg/kg,po for 30 days daily by immunohistochemical analysis; type: functional, organism-based; settings: time 30.0 day

| Compound | IC50 [1] [nM] | inhibition at 20 µM [2] [%] | Activity [3] | other results |
| --- | --- | --- | --- | --- |
| O=C(O)/C=C/c1ccc(Oc2c(C(=O)c3cccc4sccc34)sc3cc(F)ccc23)cc1 | 4280 | 12 | Active |  |
| CCc1ccccc1C(=O)c1sc2cc(F)ccc2c1Oc1ccc(/C=C/C(=O)O)cc1 | 370 | 12 | Active |  |
| O=C(O)/C=C/c1ccc(Oc2c(C(=O)c3ccc(OC(F)(F)F)cc3)sc3cc(F)ccc23)cc1 | 1440 | 18 | Active |  |
| C[C@]12CC[C@@H]3c4ccc(O)cc4C[C@@H](CCCCCCCCC[S+]([O-])CCCC(F)(F)C(F)(F)F)[C@H]3[C@@H]1CC[C@@H]2O (some centres not stated) [FULVESTRANT] | 0.1 |  |  | Activity [4]: 62.28%; inhibition [2]: inactive; Activity [5]: Active |
| Cc1cc(Oc2c(C(=O)c3ccccc3)sc3cc(F)ccc23)ccc1/C=C/C(=O)O | 670 | 19 | Active |  |
| Cc1ccc(C(=O)c2sc3cc(F)ccc3c2Oc2ccc(/C=C/C(=O)O)cc2)c(C)c1 | 200 | 13 | Active | Activity [6]: Non-Toxic; Activity [7]: Active; Activity [8]: Active; Activity [9]: Active; Activity [10]: Active; Activity [4]: 57.36%; Activity [11]: Active; Activity [12]: Non-Toxic; Activity [13]: Non-Toxic; Activity [14]: Active; Activity [15]: Dose-Dependent Effect; Activity [16]: Active; Activity [17]: Non-Toxic; Activity [18]: Non-Toxic; Activity [19]: Active; Activity [20]: Non-Toxic; Activity [21]: Active |
| O=C(O)/C=C/c1ccc(Oc2c(C(=O)c3cccc4ccccc34)sc3cc(F)ccc23)cc1 | 8570 | 8 | Active |  |
| O=C(O)/C=C/c1ccc(Oc2c(C(=O)c3ccc4occc4c3)sc3cc(F)ccc23)cc1 | 1880 | 12 | Active |  |
| Cc1cc(C)cc(C(=O)c2sc3cc(F)ccc3c2Oc2ccc(/C=C/C(=O)O)cc2)c1 | 2590 |  | Active | inhibition [2]: inactive |
| O=C(O)/C=C/c1ccc(Oc2c(C(=O)c3cccc(F)c3)sc3cc(F)ccc23)cc1 | 5830 | 9 | Active |  |
| O=C(O)/C=C/c1ccc(-c2ccc(Oc3c(C(=O)c4ccccc4)sc4cc(F)ccc34)cc2)cc1 | 9910 | 8 | Active |  |
| Cc1cc(Cl)cc(C)c1C(=O)c1sc2cc(F)ccc2c1Oc1ccc(/C=C/C(=O)O)cc1 | 560 | 6 | Active |  |
| Cc1cccc(C)c1C(=O)c1sc2cc(F)ccc2c1Oc1ccc(/C=C/C(=O)O)cc1 | 280 |  | Active | inhibition [2]: inactive |
